Assay results from patent US5688640A, “Methods of screening of effectors of endothelin converting enzyme-1” (Board of Regents, The University of Texas System, priority 1994, dated 1997).
“Also recorded” adds a separate entry of the source. One block for each compound: values may come before it. Ends that are not written are not given here.

How the values were obtained:
[1] = molecular target: T1, ECE-1 (Bos taurus, UniProt P42891); assay: Production of mature ET-1 by 1:1 co-cultures of CHO/ECE-1 and CHO/preproET-1 cells (conversion of exogenous big ET-1); type: cell-based, bovine
T1 construct: The entire coding regions from bovine ECE-1; made in house
T1 sequence (P42891 with tags, fused parts or gaps A87G/A695G limits assumed): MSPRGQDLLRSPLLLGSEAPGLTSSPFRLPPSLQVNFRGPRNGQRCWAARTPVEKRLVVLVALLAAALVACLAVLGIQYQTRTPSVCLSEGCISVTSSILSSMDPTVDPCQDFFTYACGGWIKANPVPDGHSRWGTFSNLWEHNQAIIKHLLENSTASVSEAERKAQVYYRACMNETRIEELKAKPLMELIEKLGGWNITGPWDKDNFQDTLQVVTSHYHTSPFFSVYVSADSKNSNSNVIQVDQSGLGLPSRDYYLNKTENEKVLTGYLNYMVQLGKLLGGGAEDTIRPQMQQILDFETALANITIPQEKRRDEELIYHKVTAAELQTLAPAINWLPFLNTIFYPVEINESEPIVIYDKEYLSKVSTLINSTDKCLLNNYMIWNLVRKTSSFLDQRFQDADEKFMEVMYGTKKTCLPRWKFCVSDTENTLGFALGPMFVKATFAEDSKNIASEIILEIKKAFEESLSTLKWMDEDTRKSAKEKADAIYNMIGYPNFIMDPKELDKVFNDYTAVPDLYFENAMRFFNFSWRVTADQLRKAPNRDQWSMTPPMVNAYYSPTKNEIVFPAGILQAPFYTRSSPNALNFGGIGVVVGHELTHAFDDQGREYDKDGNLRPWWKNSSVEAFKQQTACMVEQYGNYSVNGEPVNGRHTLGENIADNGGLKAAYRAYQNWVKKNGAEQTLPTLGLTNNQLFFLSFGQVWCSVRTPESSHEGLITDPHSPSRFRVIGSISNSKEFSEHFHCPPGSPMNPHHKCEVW
Description: (§2) Transient transfection of the preproET-1 cDNA was performed by the DEAE-dextran method as described (Sakurai et al., 1990). Twelve hours after transfection, cells were refed with fresh medium with or without ECE inhibitors. The medium was conditioned for an additional 12 hours and directly subjected to EIA for mature and big ET-1 (Suzuki et al., 1990; Suzuki et al., 1989). For the Ca^2+ transient bioassay (see below), Phenol Red-free CHO-SFM medium (Gibco/BRL) without serum was used in order to avoid artefacts induced by serum and the dye.
Next, the ability of CHO/ECE-1 cells to convert exogenously supplied big ET-1 was examined by co-culturing the cells with a separate CHO cell line that was stably transfected with the preproET-1 construct (CHO/preproET-1 cells).

[2] = molecular target: T1, ECE-1; assay: Secretion of big and mature ET-1 by preproET-1-transfected CHO/ECE-1 cells (conversion of endogenous big ET-1); type: cell-based, bovine
Description: as §2
To examine whether the expressed ECE-1 can convert big ET-1 in intact cells, paired cultures of CHO/ECE-1 cells and untransfected CHO cells were transiently transfected with the preproET-1 construct. After the transient transfection, the amounts of mature and big ET-1 secreted into the medium were measured by EIA. […] The functional authenticity of the immunoreactive mature peptide produced from the double-transfected cells was examined with a bioassay system that uses another line of CHO cells expressing human ETA receptors as reporter cells. […] The cells were loaded with the Ca^2+ indicator Fura-2/AM, and directly challenged with serum-free, Phenol Red-free culture supernatants from the aforementioned double-transfection protocols. […] Next the supernatants from the preproET-1-transfected CHO/ECE-1 cells were added, so that the final concentration of ET-1 as measured by EIA was ≈20 pM.

[3] = molecular target: T1, ECE-1; assay: ECE activity in solubilized CHO/ECE-1 membranes/homogenates, protease inhibitors (generation of mature ET-1 from big ET-1 by EIA); type: biochemical, bovine; settings: for inhibition of ECE activity (in words): CHO/ECE-1 membranes
Description: Solubilized membranes were prepared from this homogenate as described under Purification of ECE, except that buffer B was used instead of buffer A. For protease inhibitor studies, membranes were prepared by using buffer B without pepstain A, PMSF and pCMS.

[4] = system: CHO/ECE-1 cells; assay: Concentration of intact compound in culture medium by HPLC before and after culture with CHO/ECE-1 cells
[5] = ET-1(1-20) and ET-1(1-22) relative to authentic ET-1(1-21); cited from earlier work
[6] = molecular target: T2, ECE (Bos taurus, UniProt Q28010); assay: ECE activity in bovine adrenal cortex membrane fractions; type: biochemical
T2 construct: full length 758 aa
T2 sequence (Q28010 1-758): T1 sequence (P42891 with tags, fused parts or gaps A87G/A695G limits assumed)
Description: Bovine adrenal glands were obtained at a local slaughter house, immediately immersed in ice-cold Dulbecco's phosphate buffered saline (PBS), and brought to the laboratory within 2 hours. All subsequent procedures were performed at 4° C. Adrenal cortices were carefully separated from the medulla and connective tissue. […] The homogenate was centrifuged at 1,000×g for 10 min, and the resulting supernatant was further centrifuged at 100,000×g for 60 min. The pellet was resuspended in 5×volume of buffer A by a Teflon homogenizer, and centrifuged again at 100,000×g for 60 min. The crude membrane pellet was solubilized at 10-20 mg protein/ml in buffer A containing 2.5% C12 E10 for 30 min. The mixture was centrifuged at 100,000×g for 60 min, and the supernatant was saved as solubilized membrane.

[7] = system: endothelial ECE; settings: cited from earlier work; for inhibition of endothelial ECE activity (in words): membranes and purified preparations
[8] = molecular target: T3, human ETA receptor (Homo sapiens, UniProt P25101); assay: Ca2+ transient bioassay in CHO cells expressing human ETA receptors; type: cell-based
T3 sequence (P25101 21-427): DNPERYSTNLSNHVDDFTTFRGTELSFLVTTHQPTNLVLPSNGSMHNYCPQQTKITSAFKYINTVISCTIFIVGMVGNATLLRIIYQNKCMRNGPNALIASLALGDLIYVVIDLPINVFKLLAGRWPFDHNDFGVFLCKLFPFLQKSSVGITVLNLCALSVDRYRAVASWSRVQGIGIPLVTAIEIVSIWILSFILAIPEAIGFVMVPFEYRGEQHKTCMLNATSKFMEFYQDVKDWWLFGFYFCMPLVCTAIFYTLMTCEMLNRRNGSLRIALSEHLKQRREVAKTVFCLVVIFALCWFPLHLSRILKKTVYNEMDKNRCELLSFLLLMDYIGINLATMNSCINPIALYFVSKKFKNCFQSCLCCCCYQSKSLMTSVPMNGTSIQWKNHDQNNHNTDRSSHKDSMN
Description: Bioassay of culture supernatants from preproET-1-transfected CHO/ECE-1 cells using CHO cells expressing human ETA receptors as reporter cells. Sup-A and Sup-B represents the serum-free medium conditioned for 12 hours with CHO/ECE-1 and CHO cells each transiently transfected with the preproET-1 construct, respectively.
For the Ca^2+ transient bioassay (see below), Phenol Red-free CHO-SFM medium (Gibco/BRL) without serum was used in order to avoid artefacts induced by serum and the dye.
A CHO stable transfectant clone expressing human ETA receptors was loaded with fura-2/AM, and ET-1 induced intracellular calcium transients were monitored by a Jasco CAM-110 Intracellular Ion Analyzer as previously described (Sakamoto et al., 1993).
The functional authenticity of the immunoreactive mature peptide produced from the double-transfected cells was examined with a bioassay system that uses another line of CHO cells expressing human ETA receptors as reporter cells. A stable transfectant cell line was obtained by transfecting CHO cells with a human ETA receptor construct (Sakamoto et al., 1993). […] Next the supernatants from the preproET-1-transfected CHO/ECE-1 cells were added, so that the final concentration of ET-1 as measured by EIA was ≈20 pM.

[9] = system: cultured endothelial cells; settings: cited from earlier work
[10] = system: ECE; settings: cited from earlier work
[11] = molecular target: T1, ECE-1; assay: Substrate conversion / isopeptide selectivity of cloned ECE-1 (CHO/ECE-1 membranes or homogenate, EIA); type: biochemical, bovine; settings: in vitro; big endothelin isopeptides 0.1 μM
Description: FIG. 2A. Functional expression of ECE-1 cDNA in transfected CHO cells.
FIG. 2E. Isopeptide selectivity of ECE-1 expressed in solubilized CHO/ECE-1 membranes. Designated synthetic big endothelin isopeptides (0.1 μM) were used as substrates and generation of corresponding mature peptides were measured by EIA.
(§1) Reaction mixtures for ECE assay (50 μl) contained 0.1M sodium phosphate buffer (pH 6.8), 0.5M NaCl, 0.1 μM human big ET-1(1-38) and enzyme fraction. For some studies, the reactions were preincubated at 37° C. with various protease inhibitors for 15 minutes prior to the addition of big ET-1. The reactions were incubated at 37° C. for 30 min in siliconized 0.5-ml microcentrifuge tubes. […] Duplicate assay wells were used for each enzyme reaction. Protein concentration was determined by the Bradford method (Bio-Rad) using IgG as standard.

[12] = molecular target: T1, ECE-1; assay: HPLC analysis of big ET-1 conversion by partially purified ECE-1 from CHO/ECE-1 cells; type: biochemical, bovine; settings: 5 μM big ET-1, 24 hr
Description: FIG. 3. HPLC analysis of big ET-1 conversion by partially purified ECE-1 from CHO/ECE-1 cells. ECE-1 was partially purified from solubilized CHO/ECE-1 membranes by WGA-agarose chromatography as described in Example 1. The enzyme fraction (800 μg protein) was incubated at 37° C. with 1 μM big ET-1 in 800 μl of ECE assay buffer. […] The reaction mixture was separated by HPLC as described in Example 1. Arrows indicate elution times of the authentic peptides.
Samples were injected into a C18 reverse-phase HPLC column (Ultrasphere ODS 5 μm, 4.6×250 mm; Beckman), which was eqhilibrated with 18% (v/v) acetonitrile/0.1% (v/v) TFA and maintained at 40° C. The column was eluted at a flow rate of 1 ml/min with an 18-30% linear gradient of acetonitrile in 0.1% TFA over 12 minutes followed by a 30-36% linear gradient over an additional 12 minutes. Peptides were detected by UV absorbance at 210 nm. […] To confirm chemical authenticity of immunoreactivity in culture supernatants, the conditioned medium was pre-extracted with a Sep-Pak C18 cartridge as described (Suzuki et al., 1989) before HPLC. HPLC fractions (0.5 ml) were collected and evaporated to dryness under vacuum. […] No other immunoreactive peaks were detected. […]

[13] = molecular target: T1, ECE-1; assay: Reconstitution of ECE-1 activity by metal ions after EDTA stripping; type: biochemical, bovine; settings: ZnCl2 300 μM after 30 μM EDTA
Description: FIG. 2D. […] After incubating on ice for 15 min, the designated concentrations of metal ions were added as chloride salt and ECE activity was measured.
as §1
Approximately 3,000-cm^2 confluent monolayers of cells (≈10^8 cells) were rinsed twice with ice-cold PBS. Cells were scraped off by a rubber policeman in ice-cold PBS, and collected by centrifugation. All subsequent procedures were performed at 4° C. Cells were resuspended in 10×volume of buffer B (20 mM Tris-HCl (pH 7.4)/20 μM pepstatin A/1 mM PMSF/1 MM pCMS/250 mM sucrose), and homogenized by a 30-ml Teflon homogenizer with the piston rotating at 300 r.p.m. […]

Compound: COc1c2c(c(O)c3c1C(O)Cc1cc(CC(C)O)c(C(=O)O)c(O)c1-3)C(=O)c1cccc(O)c1C2=O (stereo not shown) [FR901533, 1,6,9,14-tetrahydroxy-3-(2-hydroxypropyl)-7-methoxy-8,13-dioxo-5,6,8,13-tetrahydro-benzo[a]naphthacene-2-carboxylate Na]
IC50 [1]: ~1 µM
inhibition of conversion of exogenous big ET-1 (in words) ([1]; added to medium at low μM concentrations): efficiently inhibited
inhibition of production/secretion of mature ET-1 by live double-transfected cells (in words) ([2]; inhibitor added to medium): did not inhibit
inhibition of ECE activity (in words) ([3]; in vitro): efficiently inhibited
IC50 ([3]; in vitro, solubilized CHO/ECE-1 membranes, read-out: apparent IC50 for inhibition of ECE activity): ~1.5 µM
measured concentration in medium after culture ([4]; 100 μM nominal, after 72-hr culture with CHO/ECE-1 cells): 94 µM
measured concentration in medium before culture ([4]; 100 μM nominal, before 72-hr culture with CHO/ECE-1 cells): 93 µM
degradation by the cells (in words) ([4]; 72-hr culture with CHO/ECE-1 cells): not degraded

Compound: ET-1(1-20): ET-1(1-20) (CSCSSLMDKECVYFCHLDII; ends and bridges not checked; cysteine pairing not given here; UniProt P05305 53-72, looked up, fragment)
vasoconstrictor/biological activity (in words) [5]: at least three orders of magnitude weaker

Compound: O=C(O)CN(CCN(CC(=O)O)CC(=O)O)CC(=O)O [EDTA]
inhibition at 1000 µM ([6]; read-out: inhibition of ECE activity): > 90%

Compound: C[C@H](CS)C(=O)N1CCC[C@H]1C(=O)O [Captopril]
inhibition of ECE activity (in words) ([3]; in vitro): not inhibited; also recorded: not by thiorphan or captopril

Compound: O=C(O)CNC(=O)C(CS)Cc1ccccc1 (stereo not shown) [Thiorphan]
inhibition of endothelial ECE activity (in words) [7]: not by thiorphan
inhibition of ECE activity (in words) ([3]; in vitro): not inhibited; also recorded: not by thiorphan or captopril

Compound: CC(C)C[C@H](NC(=O)N1CCCCCC1)C(=O)N[C@H](Cc1cn(C)c2ccccc12)C(=O)N[C@H](Cc1ccccn1)C(=O)O [FR139317]
inhibition of Ca2+ response to CHO/ECE-1 supernatant (in words) ([8]; supernatant with ≈20 pM ET-1): completely abolished

Compound: O=S(=O)(O)c1cc[c]([Hg][Cl])cc1 [pCMS, p-chloro-mercuriphenylsulphonic acid]
ECE activity (% of ECE activity without inhibitors) ([3]; inhibitor 100 μM, means of duplicate assays from two independent experiments): 298%

Compound: CC(C)C[C@H](NP(=O)(O)O[C@@H]1O[C@@H](C)[C@H](O)[C@@H](O)[C@H]1O)C(=O)N[C@@H](Cc1c[nH]c2ccccc12)C(=O)O [Phosphoramidon]
inhibition of endothelial ECE activity (in words) [7]: low μM range
effect on production of mature ET-1 (in words) ([9]; added to the medium): decreases the production of mature ET-1 in a dose dependent manner
inhibition of conversion of exogenous big ET-1 (in words) ([10]; whole animals and isolated perfused organs, most assay systems): consistently inhibits the conversion
inhibition at 100 µM ([6]; 100 μM, bovine adrenal cortex membranes): > 90%

Compound: big ET-1(1-31): C-terminally truncated substrate (CSCSSLMDKECVYFCHLDIIWVNTPEHVVPY; ends and bridges not checked; cysteine pairing not given here; UniProt P05305 53-83, looked up, fragment)
processing as ECE-1 substrate (in words) [11]: did not generate detectable levels of mature peptide; also recorded: cannot be an ECE-1 substrate

Compound: ET-1(1-22): ET-1(1-22) (CSCSSLMDKECVYFCHLDIIWV; ends and bridges not checked; cysteine pairing not given here; UniProt P05305 53-74, looked up, fragment)
vasoconstrictor/biological activity (in words) [5]: at least three orders of magnitude weaker

conversion of exogenous big ET-1 ([1]; co-culture with CHO/ECE-1 cells): 5-10%
conversion of endogenous big ET-1 (intracellular) ([2]; CHO/ECE-1 cells, depending on experimental conditions): 50-90%
concentration secreted in culture supernatant ([2]; preproET-1-transfected CHO/ECE-1 cells): 46 pM
conversion of endogenous big ET-1 to mature peptide, typical culture ([2]; preproET-1-transfected CHO/ECE-1 cells, no inhibitor): 84%
conversion of big ET-1 into two peptide products [12]: > 90%
product yield judged by areas under HPLC peaks [12]: > 80%
intracellular Ca2+ response of ETA reporter cells (in words) ([8]; 20 pM mature ET-1 (final), 1,000-fold higher concentration of big ET-1, supernatant at ≈20 pM ET-1): did not respond
Compound: big ET-1: human big ET-1(1-38) obtained from American Peptides (CSCSSLMDKECVYFCHLDIIWVNTPEHVVPYGLGSPRS; ends and bridges not checked; cysteine pairing not given here; UniProt P05305 53-90, looked up)
Km ([7]; crude membranes and purified enzyme preparations, read-out: apparent Km of endothelial ECE): 1 to 10 µM
conversion of endogenously produced big ET-1 ([9]; cultured endothelial cells): 60-80%
phosphoramidon-sensitive conversion of exogenously administered big ET-1 (in words) ([10]; isolated perfused tissues and whole animal preparations): only up to a few %
processing as ECE-1 substrate (in words) [11]: more efficiently than big ET-2 and big ET-3

inhibition of ECE activity (in words) ([3]; in vitro): inhibited
Compound: c1cnc2c(c1)ccc1cccnc12 [1,10-phenanthroline]

Compound: [Cl-].[Cl-].[Zn+2] [ZnCl2]
reconstituted ECE activity, of the original levels [13]: up to 110%
